{"source": "patent US11512268B2", "about": "“Storage-stable enzyme preparations, their production and use” (BASF SE, priority 2017, dated 2022)", "key": {"[1]": {"target": "T1, Lipolase (Thermomyces lanuginosus, UniProt O59952)", "T1 construct": "purchased Sigma-Aldrich", "T1 sequence (O59952 23-291)": "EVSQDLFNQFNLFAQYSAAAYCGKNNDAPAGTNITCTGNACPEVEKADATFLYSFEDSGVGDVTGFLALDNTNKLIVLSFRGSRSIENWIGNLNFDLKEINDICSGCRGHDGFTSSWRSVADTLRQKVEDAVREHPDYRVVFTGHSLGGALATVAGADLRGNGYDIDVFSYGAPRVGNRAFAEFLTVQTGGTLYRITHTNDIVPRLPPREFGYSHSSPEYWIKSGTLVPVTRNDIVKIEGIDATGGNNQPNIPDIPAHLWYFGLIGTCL", "assay": "storage stability of lipase (Lipolase activity, pNitrophenol-valerate substrate) in liquid formulations at 37° C.", "format": "biochemical, Thermomyces lanuginosa", "conditions": "Lipolase 0.4 wt %, storage at 37° C."}, "[2]": {"target": "T2, Savinase (Lederbergia lenta, UniProt P29600)", "T2 construct": "purchased Sigma-Aldrich", "T2 sequence (P29600 1-269)": "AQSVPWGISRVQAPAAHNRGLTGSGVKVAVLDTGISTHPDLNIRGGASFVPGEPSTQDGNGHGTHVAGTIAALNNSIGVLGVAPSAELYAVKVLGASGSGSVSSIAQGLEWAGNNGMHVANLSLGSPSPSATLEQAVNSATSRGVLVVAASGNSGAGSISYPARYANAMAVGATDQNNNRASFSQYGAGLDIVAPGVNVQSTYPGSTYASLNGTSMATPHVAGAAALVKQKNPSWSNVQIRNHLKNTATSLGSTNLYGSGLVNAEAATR", "assay": "storage stability of protease (Savinase activity, Suc-AAPF-pNA substrate) in liquid formulations at 37° C.", "format": "biochemical", "conditions": "Savinase 16.0 L 0.5 wt %, storage at 37° C."}, "[3]": {"conditions": "base formulation I., component (a) 2.5 wt %, 1 d"}, "[4]": {"conditions": "base formulation I., component (a) 2.5 wt %, 3 d"}, "[5]": {"conditions": "base formulation I., component (a) 2.5 wt %, 6 d"}, "[6]": {"conditions": "base formulation I., component (a) 2.5 wt %, 10 d"}, "[7]": {"conditions": "base formulation I., component (a) 2.5 wt %, 15 d"}, "[8]": {"conditions": "base formulation I., component (a) 2.5 wt %, 20 d"}, "[9]": {"conditions": "base formulation I., component (a) 2.5 wt %, 25 d"}, "[10]": {"conditions": "base formulation I., component (a) 2.5 wt %, 30 d"}, "[11]": {"conditions": "base formulation IV., component (a) 4.0 wt %, 1 d"}, "[12]": {"conditions": "base formulation IV., component (a) 4.0 wt %, 3 d"}, "[13]": {"conditions": "base formulation IV., component (a) 4.0 wt %, 6 d"}, "[14]": {"conditions": "base formulation IV., component (a) 4.0 wt %, 10 d"}, "[15]": {"conditions": "base formulation IV., component (a) 4.0 wt %, 15 d"}, "[16]": {"conditions": "base formulation IV., component (a) 4.0 wt %, 20 d"}, "[17]": {"conditions": "base formulation IV., component (a) 4.0 wt %, 25 d"}, "[18]": {"conditions": "base formulation IV., component (a) 4.0 wt %, 30 d"}, "[19]": {"conditions": "base formulation V., component (a) 4.0 wt %, 1 d"}, "[20]": {"conditions": "base formulation V., component (a) 4.0 wt %, 3 d"}, "[21]": {"conditions": "base formulation V., component (a) 4.0 wt %, 6 d"}, "[22]": {"conditions": "base formulation V., component (a) 4.0 wt %, 10 d"}, "[23]": {"conditions": "base formulation V., component (a) 4.0 wt %, 15 d"}, "[24]": {"conditions": "base formulation V., component (a) 4.0 wt %, 20 d"}, "[25]": {"conditions": "base formulation V., component (a) 4.0 wt %, 25 d"}, "[26]": {"conditions": "base formulation V., component (a) 4.0 wt %, 30 d"}, "[27]": {"conditions": "base formulation I., component (a) 2.5 wt %, T0"}}, "data": [{"compound": "C[N+](C)(C)CCO.[Cl-]", "note": "[C-(A.15), Choline chloride]", "values": [{"measurement": "lipase activity", "setting": "[1]; [3]", "value": 95, "unit": "%"}, {"measurement": "lipase activity", "setting": "[1]; [4]", "value": 80, "unit": "%"}, {"measurement": "lipase activity", "setting": "[1]; [5]", "value": 67, "unit": "%"}, {"measurement": "lipase activity", "setting": "[1]; [6]", "value": 55, "unit": "%"}, {"measurement": "lipase activity", "setting": "[1]; [7]", "value": 41, "unit": "%"}, {"measurement": "lipase activity", "setting": "[1]; [8]", "value": 32, "unit": "%"}, {"measurement": "lipase activity", "setting": "[1]; [9]", "value": 22, "unit": "%"}, {"measurement": "lipase activity", "setting": "[1]; [10]", "value": 20, "unit": "%"}, {"measurement": "lipase activity", "setting": "[1]; base formulation II., component (a) 2.5 wt %, 1 d", "value": 95, "unit": "%"}, {"measurement": "lipase activity", "setting": "[1]; base formulation II., component (a) 2.5 wt %, 3 d", "value": 82, "unit": "%"}, {"measurement": "lipase activity", "setting": "[1]; base formulation II., component (a) 2.5 wt %, 6 d", "value": 65, "unit": "%"}, {"measurement": "lipase activity", "setting": "[1]; base formulation II., component (a) 2.5 wt %, 10 d", "value": 56, "unit": "%"}, {"measurement": "lipase activity", "setting": "[1]; base formulation II., component (a) 2.5 wt %, 15 d", "value": 40, "unit": "%"}, {"measurement": "lipase activity", "setting": "[1]; base formulation II., component (a) 2.5 wt %, 20 d", "value": 33, "unit": "%"}, {"measurement": "lipase activity", "setting": "[1]; base formulation II., component (a) 2.5 wt %, 25 d", "value": 26, "unit": "%"}, {"measurement": "lipase activity", "setting": "[1]; base formulation II., component (a) 2.5 wt %, 30 d", "value": 22, "unit": "%"}, {"measurement": "lipase activity", "setting": "[1]; [11]", "value": 95, "unit": "%"}, {"measurement": "lipase activity", "setting": "[1]; [12]", "value": 82, "unit": "%"}, {"measurement": "lipase activity", "setting": "[1]; [13]", "value": 72, "unit": "%"}, {"measurement": "lipase activity", "setting": "[1]; [14]", "value": 59, "unit": "%"}, {"measurement": "lipase activity", "setting": "[1]; [15]", "value": 44, "unit": "%"}, {"measurement": "lipase activity", "setting": "[1]; [16]", "value": 36, "unit": "%"}, {"measurement": "lipase activity", "setting": "[1]; [17]", "value": 30, "unit": "%"}, {"measurement": "lipase activity", "setting": "[1]; [18]", "value": 23, "unit": "%"}, {"measurement": "lipase activity", "setting": "[1]; [19]", "value": 95, "unit": "%"}, {"measurement": "lipase activity", "setting": "[1]; [20]", "value": 86, "unit": "%"}, {"measurement": "lipase activity", "setting": "[1]; [21]", "value": 74, "unit": "%"}, {"measurement": "lipase activity", "setting": "[1]; [22]", "value": 63, "unit": "%"}, {"measurement": "lipase activity", "setting": "[1]; [23]", "value": 54, "unit": "%"}, {"measurement": "lipase activity", "setting": "[1]; [24]", "value": 41, "unit": "%"}, {"measurement": "lipase activity", "setting": "[1]; [25]", "value": 39, "unit": "%"}, {"measurement": "lipase activity", "setting": "[1]; [26]", "value": 30, "unit": "%"}, {"measurement": "protease activity", "setting": "[2]; [3]", "value": 92, "unit": "%"}, {"measurement": "protease activity", "setting": "[2]; [4]", "value": 85, "unit": "%"}, {"measurement": "protease activity", "setting": "[2]; [5]", "value": 64, "unit": "%"}, {"measurement": "protease activity", "setting": "[2]; [6]", "value": 47, "unit": "%"}, {"measurement": "protease activity", "setting": "[2]; [7]", "value": 39, "unit": "%"}, {"measurement": "protease activity", "setting": "[2]; [8]", "value": 31, "unit": "%"}, {"measurement": "protease activity", "setting": "[2]; [9]", "value": 22, "unit": "%"}, {"measurement": "protease activity", "setting": "[2]; [10]", "value": 8, "unit": "%"}, {"measurement": "protease activity", "setting": "[2]; [27]", "value": 98, "unit": "%"}, {"measurement": "protease activity", "setting": "[2]; base formulation VI., component (a) 4.0 wt %, 1 d", "value": 90, "unit": "%"}, {"measurement": "protease activity", "setting": "[2]; base formulation VI., component (a) 4.0 wt %, 3 d", "value": 84, "unit": "%"}, {"measurement": "protease activity", "setting": "[2]; base formulation VI., component (a) 4.0 wt %, 6 d", "value": 66, "unit": "%"}, {"measurement": "protease activity", "setting": "[2]; base formulation VI., component (a) 4.0 wt %, 10 d", "value": 47, "unit": "%"}, {"measurement": "protease activity", "setting": "[2]; base formulation VI., component (a) 4.0 wt %, 15 d", "value": 36, "unit": "%"}, {"measurement": "protease activity", "setting": "[2]; base formulation VI., component (a) 4.0 wt %, 20 d", "value": 29, "unit": "%"}, {"measurement": "protease activity", "setting": "[2]; base formulation VI., component (a) 4.0 wt %, 25 d", "value": 20, "unit": "%"}, {"measurement": "protease activity", "setting": "[2]; base formulation VI., component (a) 4.0 wt %, 30 d", "value": 10, "unit": "%"}, {"measurement": "protease activity", "setting": "[2]; base formulation VI., component (a) 4.0 wt %, T0", "value": 85, "unit": "%"}]}, {"compound": "C[N+](C)(C)CCO.C[N+](C)(C)CCO.O=C([O-])C(O)C(O)C(=O)[O-]", "note": "(centres unmarked) [C-(A.16)]", "values": [{"measurement": "lipase activity", "setting": "[1]; [3]", "value": 90, "unit": "%"}, {"measurement": "lipase activity", "setting": "[1]; [4]", "value": 81, "unit": "%"}, {"measurement": "lipase activity", "setting": "[1]; [5]", "value": 68, "unit": "%"}, {"measurement": "lipase activity", "setting": "[1]; [6]", "value": 51, "unit": "%"}, {"measurement": "lipase activity", "setting": "[1]; [7]", "value": 40, "unit": "%"}, {"measurement": "lipase activity", "setting": "[1]; [8]", "value": 34, "unit": "%"}, {"measurement": "lipase activity", "setting": "[1]; [9]", "value": 25, "unit": "%"}, {"measurement": "lipase activity", "setting": "[1]; [10]", "value": 24, "unit": "%"}, {"measurement": "lipase activity", "setting": "[1]; [27]", "value": 95, "unit": "%"}, {"measurement": "lipase activity", "setting": "[1]; [11]", "value": 90, "unit": "%"}, {"measurement": "lipase activity", "setting": "[1]; [12]", "value": 81, "unit": "%"}, {"measurement": "lipase activity", "setting": "[1]; [13]", "value": 67, "unit": "%"}, {"measurement": "lipase activity", "setting": "[1]; [14]", "value": 55, "unit": "%"}, {"measurement": "lipase activity", "setting": "[1]; [15]", "value": 41, "unit": "%"}, {"measurement": "lipase activity", "setting": "[1]; [16]", "value": 34, "unit": "%"}, {"measurement": "lipase activity", "setting": "[1]; [17]", "value": 28, "unit": "%"}, {"measurement": "lipase activity", "setting": "[1]; [18]", "value": 25, "unit": "%"}, {"measurement": "lipase activity", "setting": "[1]; base formulation IV., component (a) 4.0 wt %, T0", "value": 95, "unit": "%"}, {"measurement": "lipase activity", "setting": "[1]; [19]", "value": 92, "unit": "%"}, {"measurement": "lipase activity", "setting": "[1]; [20]", "value": 85, "unit": "%"}, {"measurement": "lipase activity", "setting": "[1]; [21]", "value": 70, "unit": "%"}, {"measurement": "lipase activity", "setting": "[1]; [22]", "value": 65, "unit": "%"}, {"measurement": "lipase activity", "setting": "[1]; [23]", "value": 58, "unit": "%"}, {"measurement": "lipase activity", "setting": "[1]; [24]", "value": 49, "unit": "%"}, {"measurement": "lipase activity", "setting": "[1]; [25]", "value": 37, "unit": "%"}, {"measurement": "lipase activity", "setting": "[1]; [26]", "value": 28, "unit": "%"}, {"measurement": "lipase activity", "setting": "[1]; base formulation V., component (a) 4.0 wt %, T0", "value": 96, "unit": "%"}, {"measurement": "protease activity", "setting": "[2]; [3]", "value": 91, "unit": "%"}, {"measurement": "protease activity", "setting": "[2]; [4]", "value": 84, "unit": "%"}, {"measurement": "protease activity", "setting": "[2]; [5]", "value": 66, "unit": "%"}, {"measurement": "protease activity", "setting": "[2]; [6]", "value": 49, "unit": "%"}, {"measurement": "protease activity", "setting": "[2]; [7]", "value": 38, "unit": "%"}, {"measurement": "protease activity", "setting": "[2]; [8]", "value": 30, "unit": "%"}, {"measurement": "protease activity", "setting": "[2]; [9]", "value": 23, "unit": "%"}, {"measurement": "protease activity", "setting": "[2]; [10]", "value": 10, "unit": "%"}, {"measurement": "protease activity", "setting": "[2]; [27]", "value": 98, "unit": "%"}]}]}
